In general, pIC50 refers to −log10 of the IC50, conventionally taken in molar units.

Structures are written as SMILES. pIC50: −log10 of the molar value.

T1 sequence (P53350 whole entry): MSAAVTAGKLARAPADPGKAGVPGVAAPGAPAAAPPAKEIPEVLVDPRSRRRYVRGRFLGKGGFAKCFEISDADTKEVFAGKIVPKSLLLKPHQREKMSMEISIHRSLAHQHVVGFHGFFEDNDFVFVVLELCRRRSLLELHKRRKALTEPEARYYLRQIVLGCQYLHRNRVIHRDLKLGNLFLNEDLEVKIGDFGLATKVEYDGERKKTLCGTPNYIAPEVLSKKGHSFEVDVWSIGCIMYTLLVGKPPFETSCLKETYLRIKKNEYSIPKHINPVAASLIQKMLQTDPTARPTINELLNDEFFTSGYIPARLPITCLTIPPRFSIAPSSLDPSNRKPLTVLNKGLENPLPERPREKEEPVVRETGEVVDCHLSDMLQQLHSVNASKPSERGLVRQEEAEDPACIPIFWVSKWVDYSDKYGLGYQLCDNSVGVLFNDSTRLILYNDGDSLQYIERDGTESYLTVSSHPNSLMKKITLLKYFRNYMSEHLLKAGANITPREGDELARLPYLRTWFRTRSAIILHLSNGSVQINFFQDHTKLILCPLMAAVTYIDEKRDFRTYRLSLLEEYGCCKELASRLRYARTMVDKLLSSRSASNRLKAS

The first assay addresses T1, PLK1 (Homo sapiens, UniProt P53350).
T1 construct: Full-length, active GST-PLK1 is purified from Sf9 insect cells; made in house; host or cells: Sf9 insect cells
Briefly: Biochemical Characterization Assay: HTRF kinase assay, GST-PLK1 phosphorylation of GST-p53. To be noted: GST-PLK1, GST-p53 substrate. Here is the method: Biochemical Characterization Assay
Full-length, active GST-PLK1 is purified from Sf9 insect cells, and full-length GST-p53 is purified from E. coli. Anti-phospho p53 antibody is from Cell Signaling Technology. Europium-conjugated anti-rabbit antibody is from PerkinElmer Life and Analytical Sciences. APC-conjugated anti-GST antibody is from Prozyme.
Six microliters of GST-PLK1 (3 ug/mL) in Kinase Assay Buffer are then added and the solution incubated at 37° C. for 35 minutes. Six microliters of solution containing 43 mM EDTA to stop the reaction and a 1:600 dilution of anti-phospho-p53 antibody in 20 mM HEPES pH 7, 50 mM NaCl, and 0.5 mg/mL BSA (Antibody Binding Buffer) are added and the solution incubated at 37° C. for 30 minutes. […] The HTRF signal is read on an Envision reader from PerkinElmer Life and Analytical Sciences.
A general note: Time-resolved FRET reads energy transfer from a long-lived donor to a nearby acceptor.
Consider `CCOc1cc(C(=O)NCCN(C)C)ccc1Nc1ncc2c(n1)N(C1CCCC1)CC(F)(F)C(=O)N2C` [Example I-218, 4-(9-cyclopentyl-7,7-difluoro-5-methyl-6-oxo-6,7,8,9-tetrahydro-5H-pyrimido[4,5-b][1,4]diazepin-2-ylamino)-N-(2-dimethylamino-ethyl)-3-ethoxy-benzamide], for which the negative logarithm of the IC50 (pIC50) was 7.30 to 9.00. As to `COc1cc(C(N)=O)c(F)cc1Nc1ncc2c(n1)N(C1CCCC1)CC(F)(F)C(=O)N2C` [Example I-170, 4-(9-cyclopentyl-7,7-difluoro-5-methyl-6-oxo-6,7,8,9-tetrahydro-5H-pyrimido[4,5-b][1,4]diazepin-2-ylamino)-2-fluoro-5-methoxy-benzamide], the pIC50 is 7.30 to 9.00. Consider `CN1CCC(NC(=O)c2cc(F)c(Nc3ncc4c(n3)N(C3CCCC3)CC(F)(F)C(=O)N4C)cc2F)CC1` [Example I-233, 4-(9-cyclopentyl-7,7-difluoro-5-methyl-6-oxo-6,7,8,9-tetrahydro-5H-pyrimido[4,5-b][1,4]diazepin-2-ylamino)-2,5-difluoro-N-(1-methyl-piperidin-4-yl)-benzamide], for which the negative-log IC50 (pIC50) is 7.30 to 9.00. `CN1C(=O)C(F)(F)CN(C2CCCC2)c2nc(Nc3cc(F)c(C(=O)NC4CCN(C(=O)OC(C)(C)C)CC4)cc3F)ncc21` [Example I-239, 4-[4-(9-cyclopentyl-7,7-difluoro-5-methyl-6-oxo-6,7,8,9-tetrahydro-5H-pyrimido[4,5-b][1,4]diazepin-2-ylamino)-2,5-difluoro-benzoylamino]-piperidine-1-carboxylic acid tert-butyl ester] showed a pIC50 of 6.30 to 7.29. Consider `COc1cc(C(=O)O)ccc1Nc1ncc2c(n1)N(CCc1ccccc1)CC(F)(F)C(=O)N2C` [Example I-275, 4-(7,7-difluoro-5-methyl-6-oxo-9-phenethyl-6,7,8,9-tetrahydro-5H-pyrimido[4,5-b][1,4]diazepin-2-ylamino)-3-methoxy-benzoic acid], for which the pIC50 is 6.30 to 7.29. Regarding `CC(C)Oc1cc(C(=O)NC2CCN(C)CC2)ccc1Nc1ncc2c(n1)N(C1CCCC1)CC(F)(F)C(=O)N2C` [Example I-180, 4-(9-cyclopentyl-7,7-difluoro-5-methyl-6-oxo-6,7,8,9-tetrahydro-5H-pyrimido[4,5-b][1,4]diazepin-2-ylamino)-3-isopropoxy-N-(1-methyl-piperidin-4-yl)-benzamide], the negative logarithm of the IC50 (pIC50) was 7.30 to 9.00. On the same count and under the same terms, with `CNC(=O)c1ccc(Nc2ncc3c(n2)N(CCc2cccs2)CC(F)(F)C(=O)N3C)c(OC)c1` [Example I-272, 4-[7,7-difluoro-5-methyl-6-oxo-9-(2-thiophen-2-yl-ethyl)-6,7,8,9-tetrahydro-5H-pyrimido[4,5-b][1,4]diazepin-2-ylamino]-3-methoxy-N-methyl-benzamide] the figure was 7.30 to 9.00; with `COc1cc(C(=O)NCCCN(C)C)ccc1Nc1ncc2c(n1)N(CCc1cccs1)CC(F)(F)C(=O)N2C` [Example I-273, 4-[7,7-difluoro-5-methyl-6-oxo-9-(2-thiophen-2-yl-ethyl)-6,7,8,9-tetrahydro-5H-pyrimido[4,5-b][1,4]diazepin-2-ylamino]-N-(3-dimethylamino-propyl)-3-methoxy-benzamide], 7.30 to 9.00; with `CNC(=O)c1ccc(Nc2ncc3c(n2)N(CCc2ccccc2)CC(F)(F)C(=O)N3C)c(OC)c1` [Example I-278, 4-(7,7-difluoro-5-methyl-6-oxo-9-phenethyl-6,7,8,9-tetrahydro-5H-pyrimido[4,5-b][1,4]diazepin-2-ylamino)-3-methoxy-N-methyl-benzamide], 6.30 to 7.29.

The assay is the same for the next values; noted with them: GST-PLK1, GST-p53 substrate, ATP.
`COc1cc(C(=O)NC2CCN(c3ccccn3)CC2)ccc1Nc1ncc2c(n1)N(C1CCCC1)CC(F)(F)C(=O)N2C` [Example I-108, 4-(9-cyclopentyl-7,7-difluoro-5-methyl-6-oxo-6,7,8,9-tetrahydro-5H-pyrimido[4,5-b][1,4]diazepin-2-ylamino)-3-methoxy-N-(3,4,5,6-tetrahydro-2H-[1,2′]bipyridinyl-4-yl)-benzamide]: the pIC50 was 7.30 to 9.00. Still for that read-out and setting: with `COc1cc(C(=O)N[C@@H]2CCNC(=O)C2)ccc1Nc1ncc2c(n1)N(C1CCCC1)CC(F)(F)C(=O)N2C` [Example I-89, R-4-(9-cyclopentyl-7,7-difluoro-5-methyl-6-oxo-6,7,8,9-tetrahydro-5H-pyrimido[4,5-b][1,4]diazepin-2-ylamino)-3-methoxy-N-(2-oxo-piperidin-4-yl)-benzamide] the figure was 7.30 to 9.00. Consider `COc1cc(C(=O)NCCCN2CCNCC2)ccc1Nc1ncc2c(n1)N(C1CCCC1)CC(F)(F)C(=O)N2C` [Example I-95, 4-(9-cyclopentyl-7,7-difluoro-5-methyl-6-oxo-6,7,8,9-tetrahydro-5H-pyrimido[4,5-b][1,4]diazepin-2-ylamino)-3-methoxy-N-(3-piperazin-1-yl-propyl)-benzamide], for which the pIC50 was 7.30 to 9.00. Regarding `COc1cc(C(=O)NCCN2CCNCC2)ccc1Nc1ncc2c(n1)N(C1CCCC1)CC(F)(F)C(=O)N2C` [Example I-49, 4-(9-cyclopentyl-7,7-difluoro-5-methyl-6-oxo-6,7,8,9-tetrahydro-5H-pyrimido[4,5-b][1,4]diazepin-2-ylamino)-3-methoxy-N-(2-piperazin-1-yl-ethyl)-benzamide], the pIC50 was 7.30 to 9.00.

For `COc1cc(C(=O)N2CCC(N)CC2)ccc1Nc1ncc2c(n1)N(C1CCC1)CC(F)(F)C(=O)N2C` [Example I-6, 2-[4-(4-amino-piperidine-1-carbonyl)-2-methoxy-phenylamino]-9-cyclobutyl-7,7-difluoro-5-methyl-5,7,8,9-tetrahydro-pyrimido[4,5-b][1,4]diazepin-6-one], the pIC50 was 6.30 to 7.29. As for `COc1cc(C(=O)NC2CCN(c3ccncc3)CC2)ccc1Nc1ncc2c(n1)N(C1CCCC1)CC(F)(F)C(=O)N2C` [Example I-62, 4-(9-cyclopentyl-7,7-difluoro-5-methyl-6-oxo-6,7,8,9-tetrahydro-5H-pyrimido[4,5-b][1,4]diazepin-2-ylamino)-3-methoxy-N-(3,4,5,6-tetrahydro-2H-[1,4′]bipyridinyl-4-yl)-benzamide], the negative-log IC50 (pIC50) is 7.30 to 9.00. The compound `COc1cc(C(=O)NCCCCO)ccc1Nc1ncc2c(n1)N(C1CCCC1)CC(F)(F)C(=O)N2C` [Example I-39, 4-(9-cyclopentyl-7,7-difluoro-5-methyl-6-oxo-6,7,8,9-tetrahydro-5H-pyrimido[4,5-b][1,4]diazepin-2-ylamino)-N-(4-hydroxy-butyl)-3-methoxy-benzamide] had a pIC50 of 7.30 to 9.00. In turn, `COc1cc(C(=O)NCCN)ccc1Nc1ncc2c(n1)N(C1CCCC1)CC(F)(F)C(=O)N2C` [Example I-48, N-(2-amino-ethyl)-4-(9-cyclopentyl-7,7-difluoro-5-methyl-6-oxo-6,7,8,9-tetrahydro-5H-pyrimido[4,5-b][1,4]diazepin-2-ylamino)-3-methoxy-benzamide] showed a negative-log IC50 (pIC50) of 7.30 to 9.00. Consider `CCCN1C(=O)C(F)(F)CN(C2CCCC2)c2nc(Nc3ccc(C(N)=O)cc3)ncc21` [Example I-145, 4-(9-cyclopentyl-7,7-difluoro-6-oxo-5-propyl-6,7,8,9-tetrahydro-5H-pyrimido[4,5-b][1,4]diazepin-2-ylamino)-benzamide], for which the pIC50 was 5.30 to 6.30.

Consider `COc1cc(C(=O)NC2CCNCC2)ccc1Nc1ncc2c(n1)N(C1CCC1)CC(F)(F)C(=O)N2C` [Example I-5, 4-(9-cyclobutyl-7,7-difluoro-5-methyl-6-oxo-6,7,8,9-tetrahydro-5H-pyrimido[4,5-b][1,4]diazepin-2-ylamino)-3-methoxy-N-piperidin-4-yl-benzamide], for which the pIC50 was 7.30 to 9.00. Compound `COc1cc(C(=O)NCCCN2CCCC2)ccc1Nc1ncc2c(n1)N(C1CCCC1)CC(F)(F)C(=O)N2C` [Example I-80, 4-(9-cyclopentyl-7,7-difluoro-5-methyl-6-oxo-6,7,8,9-tetrahydro-5H-pyrimido[4,5-b][1,4]diazepin-2-ylamino)-3-methoxy-N-(3-pyrrolidin-1-yl-propyl)-benzamide] showed a pIC50 of 7.30 to 9.00. As for `COc1cc(C(=O)NCC(O)CN2CCN(C(=O)OC(C)(C)C)CC2)ccc1Nc1ncc2c(n1)N(C1CCCC1)CC(F)(F)C(=O)N2C` (stereo not drawn) [Example I-120, 4-{3-[4-(9-cyclopentyl-7,7-difluoro-5-methyl-6-oxo-6,7,8,9-tetrahydro-5H-pyrimido[4,5-b][1,4]diazepin-2-ylamino)-3-methoxy-benzoylamino]-2-hydroxy-propyl}-piperazine-1-carboxylic acid tert-butyl ester], the negative-log IC50 (pIC50) is 6.30 to 7.29.

`COc1cc(C(=O)NCCCN2CCN(C)CC2)ccc1Nc1ncc2c(n1)N(C1CCCC1)CC(F)(F)C(=O)N2C` [Example I-87, 4-(9-cyclopentyl-7,7-difluoro-5-methyl-6-oxo-6,7,8,9-tetrahydro-5H-pyrimido[4,5-b][1,4]diazepin-2-ylamino)-3-methoxy-N-[3-(4-methyl-piperazin-1-yl)-propyl]-benzamide] showed a pIC50 of 7.30 to 9.00. `CCN1C(=O)C(F)(F)CN(C2CCCC2)c2nc(Nc3ccc(C(N)=O)cc3OC)ncc21` [Example I-157, 4-(9-cyclopentyl-5-ethyl-7,7-difluoro-6-oxo-6,7,8,9-tetrahydro-5H-pyrimido[4,5-b][1,4]diazepin-2-yl-amino)-3-methoxy-benzamide] gave a pIC50 of 5.30 to 6.30. In turn, `COc1cc(C(=O)N(C)C)ccc1Nc1ncc2c(n1)N(C1CCCC1)CC(F)(F)C(=O)N2C` [Example I-125, 4-(9-cyclopentyl-7,7-difluoro-5-methyl-6-oxo-6,7,8,9-tetrahydro-5H-pyrimido[4,5-b][1,4]diazepin-2-ylamino)-3-methoxy-N,N-dimethyl-benzamide] had a pIC50 of 7.30 to 9.00.

The values are drawn from patent US8003785B2 (Takeda Pharmaceutical Company Limited, priority 2008, dated 2011).
